Laboratory results: publication PMC8776094, “Reactive Oxygen Species Production Is Responsible for Antineoplastic Activity of Osmium, Ruthenium, Iridium and Rhodium Half-Sandwich Type Complexes with Bidentate Glycosyl Heterocyclic Ligands in Various Cancer Cell Models” (International Journal of Molecular Sciences, 2022)

Tests used:
Type in all cases: cell-based
A2780 cells = experiment: SRB assay with or without 1 mM vitamin E co-treatment; conditions: 48 h SRB
Protocol: To assess the causative role of oxidative stress in cytostasis induced by the compounds we identified in this study, we co-treated cells with the compounds and with vitamin E, a lipophilic antioxidant.
(§1) The assay was performed similarly to the method used in [73]. Cells were seeded in 96-well plates the day before the assay. Cells were treated with the compounds for 48 h, with the exception of L428, where 96 h of treatment was applied. Cells were fixed with 10% trichloroacetic acid (TCA). Fixed cells were washed in distilled water 3 times, followed by staining with SRB (0.4 m/V% dissolved in 1% acetic acid) for 10 min. The stained cells were washed in 1% acetic acid 5 times; the acetic acid was removed, and the cells were left to dry. Protein-bound SRB was released by adding 100 µL 10 mM Tris base. Plates were measured in a plate photometer (Thermo Scientific Multiscan GO spectrophotometer, Waltham, MA, USA) at 540 nm. On each plate, wells were designed to contain untreated cells. In calculations, the readings for these wells were considered as 1 and all readings were expressed relative to these values.
Figure 10 Assessment of selected Os(II) and Ir(III) complexes (Os-3‒Os-6, Ir-6) for cytostatic activity. Here, 1.5 × 10^3 A2780 cells were plated onto 96-well plates. Cells were treated with the compounds in the concentrations indicated for 48 h for an SRB assay with or without 1 mM vitamin E. Data are represented as average ± SD, from three biological replicates; individual assays were performed in duplicate. Values were normalized for vehicle-treated cells. Absorbance for vehicle-treated cells is equal to 1. Normality was assessed using the d’Agostino and Pearson test. Os-3, Os-4, Os-6, Ir-6 data had normal distribution, while in Os-5, normality was achieved using the Box-Cox normalization method. Statistical difference was assessed using a two-way ANOVA test; all measurement points were compared with each other. *, ** and *** indicate statistically significant differences between vehicle-treated (control) cells and those treated with a compound but not with vitamin E, at p < 0.05 and p < 0.001, respectively. #, ##, and ### indicate statistically significant differences between vehicle-treated (no Vitamin E) and the cells treated with a Vitamin E at p < 0.05, p < 0.01 and p < 0.001, respectively. !, !!, and !!! indicate statistically significant differences between vitamin E and vehicle-treated cells (control) and the cells treated with vitamin E and a compound at p < 0.05, p < 0.01 and p < 0.001, respectively.

[1] = tested on: A2780 ovarian cancer cells; experiment: MTT reduction assay, 4 h, rapid toxicity, A2780; conditions: 4 h treatment; for Maximum Inhibition (%) A2780: MTT assay, tested 0.001694-33.3333 µM, ND = not detected or cannot be calculated
Protocol: (§2) The compounds were tested between 0.001694 and 33.3333 µM, using a 4-hour-long MTT test to assess rapid toxicity and a 48-hour-long SRB assay to assess the long-term effects of the inhibition of proliferation (cytostasis). The MTT assay assesses the activity of mitochondrial complex I and detects rapid, direct toxicity, as well as indicating apoptosis and necrosis. The SRB assay measures the total protein content that is proportional to cell numbers; therefore, the assay can detect changes in cell numbers and can thus be used as a readout for cell proliferation. The SRB assay was performed after 48 h of treatment (with the exception of L428 cells, which were tested for 96 h due to their slower proliferation rate). In this setting, the SRB assay informs us of long-term changes to cell proliferation. We assessed the maximal inhibition within that concentration range, and descriptive statistics were performed. We performed a one-way ANOVA, followed by the Kruskal–Wallis test, regardless of the normal or non-normal distribution of the data. Due to the large number of significance values, the results of the significance calculations are provided in an Excel spreadsheet at https://figshare.com/s/28d14597d5041f08eb08 (accessed on 6 January 2022), among other primary data of the study. Where possible, nonlinear regression was performed on the curves to determine the IC50 values ((inhibitor) vs. response—variable slope (four parameters) method with Graphpad v8.0.1). […] In Table 5, we added the IC50 values that we determined for a set of 4 active ruthenium half-sandwich complexes we identified previously, to be used in subsequent structure-activity relationship (SAR) analyses.
A2780 cells were cultured in RMPI 1640 medium, supplemented with 10% fetal calf serum, 2 mM glutamine, and 1% penicillin-streptomycin.
The MTT reduction assay measures the activity of mitochondrial complex I and can be used to detect apoptosis and necrosis. The assay was performed similarly to the method used in [72]. Briefly, cells were plated in 96-well plates the day before the assay. Cells were treated with the compounds for 4 h, then MTT was added at 0.5 mg/mL final concentration and the cells were incubated at 37 °C in a cell incubator. The culture media were removed and the reduced MTT dye was dissolved in dimethyl-sulfoxide (DMSO) and plates were measured in a plate photometer (Thermo Scientific Multiscan GO spectrophotometer, Waltham, MA, USA) at 540 nm. On each plate, wells were designed to contain untreated/vehicle-treated cells. In the calculations, the readings for these wells were considered as 1 and all readings were expressed relative to these values.

[2] = tested on: ID8 ovarian cancer cell line; experiment: SRB assay, 48 h, cytostasis, ID8; conditions: for IC50 / ID8 Max. Inh. (%): SRB assay, 48 h; for ID8 Max. Inh. (%): ND = not detected
Protocol: as §2
ID8 cells were cultured in a high-glucose DMEM (4.5 g/L glucose) medium, supplemented with 4% fetal calf serum, 2 mM glutamine, 1% penicillin-streptomycin, and 1% ITS supplement (I3146).
as §1
Statistical analysis was performed using the 8.0.1 version of Graphpad Prism. Values were tested for normal distribution, using the d’Agostino and Pearson normality test. When necessary, values were log-normalized or were normalized using the Box-Cox normalization method or using a two-step transformation, as indicated in the figure captions. Nonlinear regression was performed using the built-in “[Inhibitor] vs. Response—Variable slope (four parameters), least-square fit” utility of Graphpad, yielding the IC50 and Hill slope values.

[3] = tested on: L428, a Hodgkin's lymphoma cell line; experiment: Cytostasis assay, 96 h, L428; conditions: for cytostatic activity on L428 cells (in words): 96 h; for L428 Max. Inh. (%): 96 h treatment, ND = not detected
Protocol: as §2
We turned next to assessing whether the cytostatic activity of Os-3, Os-4, Os-5, Os-6 and Ir-6 complexes is specific for ovarian cancer cell lines or if they may be active on other cell lines. To that end, we tested the complexes on another carcinoma cell line (Capan2, a pancreatic adenocarcinoma cell line), on a sarcoma cell line (Saos, an osteosarcoma cell line) and on a lymphoma cell line (L428, a Hodgkin’s lymphoma cell line).
L428 cells were maintained in RPMI 1640 medium, supplemented with 10% fetal calf serum, 2 mM glutamine, and 1% penicillin-streptomycin.
as §1
Here, 1.5 × 10^3 Capan2, 3 × 10^3 Saos cells and 10^4 L428 cells were plated onto 96-well plates. Capan2 and Saos cells were treated with the compounds in the concentrations indicated for 48 h for an SRB assay. L428 cells were treated with the compounds in the concentrations indicated for 96 h, then cells were counted using conventional microscopy and a Burker chamber. Data are represented as average ± SD, from three biological replicates; individual assays were performed in duplicate. Values were normalized for vehicle-treated cells; the absorbance for vehicle-treated cells is equal to 1. A one-way ANOVA, followed by a Kruskal–Wallis test, was performed individually for each compound. […]

| Structure (SMILES) | effect of vitamin E on the cytostatic properties of the complex (A2780 cells) | toxicity on A2780 cells in short-term MTT assay (in words) [1] | Maximum Inhibition (%) A2780 [1] [%] | cytostatic activity on ID8 cells, SRB assay (in words) ([2]; 48 h treatment) | IC50 [2] [nM] | ID8 Max. Inh. (%) [2] [%] | cytostatic activity on L428 cells (in words) [3] | L428 Max. Inh. (%) [3] [%] |
| --- | --- | --- | --- | --- | --- | --- | --- | --- |
| Cc1c(C)c(C)[c-](C)c1C.F[P-](F)(F)(F)(F)F.O=C(OCC1OC(n2cc(-c3ccccn3)nn2)C(OC(=O)c2ccccc2)C(OC(=O)c2ccccc2)C1OC(=O)c1ccccc1)c1ccccc1.[Cl][Ir+2] (mixture of isomers) [Ir-6] | potently inhibited by vitamin E | exerted toxicity in higher concentrations | 43.07 | pronounced cytostatic activity | 980 | 100 | active on all cell lines | 100 |
| Cc1ccc(C(C)C)cc1.F[P-](F)(F)(F)(F)F.O=C(OCC1OC(c2nnc(-c3ccccn3)o2)C(OC(=O)c2ccccc2)C(OC(=O)c2ccccc2)C1OC(=O)c1ccccc1)c1ccccc1.[Cl][Os+] (mixture of isomers) [Os-3] | potently inhibited by vitamin E | – | 37.42 | – | 5940 | 100 | active on all cell lines | 100 |
| Cc1ccc(C(C)C)cc1.F[P-](F)(F)(F)(F)F.O=C(OCC1OC(c2nnc(-c3ccccn3)o2)C(OC(=O)c2ccccc2)C(OC(=O)c2ccccc2)C1OC(=O)c1ccccc1)c1ccccc1.[Cl][Os+] (mixture of isomers) [Os-4] | potently inhibited by vitamin E | – | 26.67 | – | 6950 | 100 | active on all cell lines | 100 |
| Cc1ccc(C(C)C)cc1.F[P-](F)(F)(F)(F)F.O=C(OC1COC(c2nnc(-c3ccccn3)o2)C(OC(=O)c2ccccc2)C1OC(=O)c1ccccc1)c1ccccc1.[Cl][Os+] (mixture of isomers) [Os-5] | potently inhibited by vitamin E | – | 31.38 | – | 1960 | 100 | active on all cell lines | 100 |
| Cc1ccc(C(C)C)cc1.F[P-](F)(F)(F)(F)F.O=C(OCC1OC(n2cc(-c3ccccn3)nn2)C(OC(=O)c2ccccc2)C(OC(=O)c2ccccc2)C1OC(=O)c1ccccc1)c1ccccc1.[Cl][Os+] (mixture of isomers) [Os-6] | potently inhibited by vitamin E | – | 21.38 | – | 1960 | 100 | active on all cell lines | 100 |
